# Patent US20250223559A1, “AXIOLOID: A STEM CELL-BASED MODEL OF HUMAN AXIAL DEVELOPMENT” (KYOTO UNIVERSITY, priority 2022, published 2025)
# System: human Axioloids
# Assay: Immunofluorescence and HCR in situ expression patterns in Axioloids
# Assay type: cell-based
# Protocol: Human Axioloid samples were washed twice with 0.1% BSA (Nacalai) in PBS (Takara), fixed with 4% paraformaldehyde (PFA) for 20 minutes at room temperature and then washed again twice with 0.1% BSA in PBS. Samples were permeabilized in 0.2% Triton X-100 (Nacalai) in PBS for 15 minutes at room temperature and blocked in 5% BSA in PBS for 1 hour at room temperature. Axioloid samples were stained with primary antibodies diluted in 0.5% BSA in PBST (1% Tween-20 (Nacalai) in PBS) for overnight (12-16 hours) at 4° C. Primary antibodies used in this study were: goat anti-TBXT (TBXT) (1:500, R&D Systems), mouse anti-Fibronectin (1:10, DSHB), mouse anti-Laminin (γ1) (1:10, DSHB), rabbit anti-MEOX1 (1:500, ATLAS), mouse anti-N-Cadherin (1:200, BD Biosciences), mouse anti-PKCζ (1:100, Santa Cruz), rabbit anti-SOX2 (1:400, Cell Signaling), and goat anti-TBX6 (1:500, R&D Systems). Samples were then washed twice with PBST and stained with secondary antibodies and Alexa Fluor 647 conjugated Phalloidin (Invitrogen) diluted in 0.5% BSA in PBST for 3 hours at room temperature, washed twice with PBST and counterstained with DAPI for 5 min at room temperature. […]
smiles,measurement,setting,value
"CC1=C(/C=C/C(C)=C/C=C/C(C)=C/C=O)C(C)(C)CCC1 [RAL, all trans-Retinal]",expression gradients of FGF8 and WNT3a (HCR),MG+RAL,still showed clear expression gradients of FGF8 and WNT3a
same,"protein and gene expression patterns (TBXT, MEOX1, UNCX, TBX18)","MG-embedded, RA or RAL treated",largely unchanged or even improved
